Test results published in ChEMBL document CHEMBL1201862, “PubChem BioAssay data set” (2004).
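How tested: cells in 96-well plates exposed to compound for 48 hours at five concentrations. At the GI50, growth is halved.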 Active and inactive are the calls of the source. No stated cut-off is given here; in the data, active = GI50 up to about 1.1 µM and inactive = higher.

Key:
Assay in all cases: DTP human tumour cell line panel, 48 h
BT-549 = tested on: BT-549
SF-539 = tested on: SF-539
UACC-62 = tested on: UACC-62
NCI-H23 = tested on: NCI-H23
CCRF-CEM = tested on: CCRF-CEM
NCI-H460 = tested on: NCI-H460
SF-268 = tested on: SF-268
IGROV-1 = tested on: IGROV-1
HOP-62 = tested on: HOP-62
TK-10 = tested on: TK-10
Hs-578T = tested on: Hs-578T
SN12C = tested on: SN12C
MDA-N = tested on: MDA-N
Malme-3M = tested on: Malme-3M
MDA-MB-435 = tested on: MDA-MB-435
PC-3 = tested on: PC-3
COLO 205 = tested on: COLO 205
HCT-15 = tested on: HCT-15
RPMI-8226 = tested on: RPMI-8226
SK-OV-3 = tested on: SK-OV-3

Structure (SMILES)	GI50 (BT-549)	GI50 (SF-539)	GI50 (UACC-62)	GI50 (NCI-H23)	GI50 (CCRF-CEM)	GI50 (NCI-H460)	GI50 (SF-268)	GI50 (IGROV-1)	GI50 (HOP-62)	GI50 (TK-10)	GI50 (Hs-578T)	GI50 (SN12C)	GI50 (MDA-N)	GI50 (Malme-3M)	GI50 (MDA-MB-435)	GI50 (PC-3)	GI50 (COLO 205)	GI50 (HCT-15)	GI50 (RPMI-8226)	GI50 (SK-OV-3)
C=CCOc1ccc(C(=N/NC(=O)c2ccccc2)/N=N/c2ccccc2)cc1OC	42.5 µM (inactive)	> 100 µM (inactive)	71.1 µM (inactive)	73.8 µM (inactive)	36.6 µM (inactive)	40.6 µM (inactive)	> 100 µM (inactive)	> 100 µM (inactive)	> 100 µM (inactive)	> 100 µM (inactive)	70.8 µM (inactive)	> 100 µM (inactive)	> 100 µM (inactive)	> 100 µM (inactive)	> 100 µM (inactive)	79.1 µM (inactive)	55 µM (inactive)	63.8 µM		
COc1cc(C(=O)/C=C/c2ccc(OCCSCCCCCCCCCCSCCOc3ccc(/C=C/C(=O)c4cc(OC)c(OC)c(OC)c4)cc3)cc2)cc(OC)c1OC	> 100 µM (inactive)	> 100 µM (inactive)	> 100 µM (inactive)	> 100 µM (inactive)	> 100 µM (inactive)		> 100 µM (inactive)	> 100 µM (inactive)	> 100 µM (inactive)	> 100 µM (inactive)	> 100 µM (inactive)	> 100 µM (inactive)	> 100 µM (inactive)	> 100 µM (inactive)	> 100 µM (inactive)	> 100 µM (inactive)	> 100 µM (inactive)	> 100 µM	> 100 µM (inactive)	
O=[N+]([O-])C(Cl)C(Cl)C(Cl)=C(Cl)Cl (stereo not given)	22.6 µM (inactive)	38.5 µM (inactive)	16.6 µM (inactive)	23.8 µM (inactive)	23.7 µM (inactive)	49.1 µM (inactive)	> 45.8 µM (inactive)	13.3 µM (inactive)	41.2 µM (inactive)	19.4 µM (inactive)	25.1 µM (inactive)	33.7 µM (inactive)	19.1 µM (inactive)	14.8 µM (inactive)	23.7 µM (inactive)	> 41.3 µM (inactive)	17.5 µM (inactive)	18.7 µM		19.5 µM (inactive)
C=C1C(=O)[C@]23[C@H](O)[C@H]1CC[C@H]2[C@@]12CO[C@@]3(O)C[C@@H]1C(C)(C)CC[C@@H]2O [MEGATHYRIN A]	4.37 µM (inactive)	6.79 µM (inactive)		7.4 µM (inactive)	7.59 µM (inactive)		6.34 µM (inactive)	7.14 µM (inactive)	> 25 µM (inactive)	9.75 µM (inactive)	7.29 µM (inactive)	7.85 µM (inactive)	7.69 µM (inactive)	6.71 µM (inactive)	4.12 µM (inactive)	9.2 µM (inactive)	3.98 µM (inactive)	6.95 µM	7.4 µM (inactive)	
C=C(C)[C@@H]1CC[C@]2(C(=O)O)CC[C@]3(C)[C@H](CC[C@@H]4[C@@]5(C)CC[C@H](C(=O)/C=C/c6ccc(O)cc6)C(C)(C)[C@@H]5CC[C@]43C)[C@@H]12	10.4 µM (inactive)	3.01 µM (inactive)	8.89 µM (inactive)	4.22 µM (inactive)	2.39 µM (inactive)	2.73 µM (inactive)	8.11 µM (inactive)	8.17 µM (inactive)	8.39 µM (inactive)	7.82 µM (inactive)	4.75 µM (inactive)	3.05 µM (inactive)	4.72 µM (inactive)	13.5 µM (inactive)	7.67 µM (inactive)	5.98 µM (inactive)	2.39 µM (inactive)	3.45 µM		6.15 µM (inactive)
OCC(CN1CCCCC1)(CN1CCCCC1)CN1CCCCC1	> 100 µM (inactive)	> 100 µM (inactive)	> 100 µM (inactive)	> 100 µM (inactive)	> 100 µM (inactive)	> 100 µM (inactive)	> 100 µM (inactive)	> 100 µM (inactive)	> 100 µM (inactive)	> 100 µM (inactive)	> 100 µM (inactive)	> 100 µM (inactive)	> 100 µM (inactive)	> 100 µM (inactive)	> 100 µM (inactive)	> 100 µM (inactive)	> 100 µM (inactive)	> 100 µM		> 100 µM (inactive)
O=[N+]([O-])c1ccc(/N=N\c2c(O)ccc3ccccc23)c([N+](=O)[O-])c1	> 100 µM (inactive)		> 100 µM (inactive)	> 100 µM (inactive)	29.4 µM (inactive)	> 100 µM (inactive)	> 100 µM (inactive)	> 32.7 µM (inactive)	> 100 µM (inactive)	> 90.4 µM (inactive)	> 100 µM (inactive)	> 100 µM (inactive)	> 100 µM (inactive)	> 100 µM (inactive)	> 100 µM (inactive)	> 100 µM (inactive)	> 100 µM (inactive)	> 100 µM	> 83.4 µM (inactive)	> 100 µM (inactive)
CC1(CC2=C(C(=O)NCCO[Si](C)(C)C(C)(C)C)C3(OCCO3)C2=O)OCCO1	53.2 µM (inactive)	> 100 µM (inactive)	> 100 µM (inactive)	63.5 µM (inactive)	54.2 µM (inactive)	> 100 µM (inactive)	> 100 µM (inactive)	92.7 µM (inactive)	> 100 µM (inactive)	> 100 µM (inactive)	> 100 µM (inactive)	> 100 µM (inactive)	> 100 µM (inactive)	20.4 µM (inactive)	> 100 µM (inactive)	> 100 µM (inactive)	> 100 µM (inactive)	> 100 µM		> 100 µM (inactive)
CCCCCC(O)C(O)CCC[C@H](O)[C@H]1CC[C@H]([C@H]2CC[C@H]([C@H](O)CCCCCCCCCCCCC3=C[C@H](C)OC3=O)O2)O1 (stereo not given in full)	8.93 µM (inactive)	5.7 µM (inactive)	1.71 µM (inactive)	1.37 µM (inactive)	1.09 µM (active)	2.43 µM (inactive)	1.83 µM (inactive)	3.24 µM (inactive)	5.2 µM (inactive)	2.86 µM (inactive)	2.91 µM (inactive)	3.87 µM (inactive)	2.83 µM (inactive)	11.9 µM (inactive)	1.5 µM (inactive)	2.94 µM (inactive)	3.98 µM (inactive)	3.81 µM	1.28 µM (inactive)	
N#CCCNCCN(CCN(C(=O)Nc1ccccc1)c1ccccc1)C(=O)Nc1ccccc1	38.4 µM (inactive)		32.2 µM (inactive)	33.2 µM (inactive)	78.9 µM (inactive)	37.9 µM (inactive)	63.5 µM (inactive)	50.4 µM (inactive)	65.9 µM (inactive)	29.5 µM (inactive)	59.2 µM (inactive)	78.9 µM (inactive)	47 µM (inactive)	23.4 µM (inactive)		57.3 µM (inactive)	20.2 µM (inactive)	41.5 µM	57 µM (inactive)	> 100 µM (inactive)
